Article PMC11571215, “Optimization of Antiproliferative Properties of Triimine Copper(II) Complexes” (Journal of Medicinal Chemistry, 2024)
Like-named read-outs stand apart in the source and are kept apart here.

Key:
Assay type in all cases: cell-based, human
[1] = tested on: HCT116 cells (colorectal carcinoma); assay: MTS cell viability assay, HCT116 2D; conditions: for IC50: 48 h of exposure, MTS, relative IC50, mean + SEM; for SI HCT116: ratio IC50 fibroblasts / IC50 HCT116
Method: (§1) The antiproliferative effect of the Cu(II) complexes in tumor and healthy cell lines was assessed through the MTS assay, a colorimetric method that is widely used to evaluate cellular viability, specifically mitochondrial viability.[53],[54] Cellular viability was determined after 48 h exposure to a concentration range (0.1–50 μM) of Cu(II) complexes in three tumor cell lines. […] Additionally, the viability of healthy primary dermal fibroblasts was performed as a comparison of the complexes’ antiproliferative effects in normal cells.
(§2) Cellular viability assays were performed using HCT116, HCT116-DoxR, and A2780 cancer cell lines as well as normal human primary fibroblasts. Cells were seeded at a density of 0.75 × 10^5 cells/mL in 96-well plates and incubated at 37 °C with 5% (v/v) CO2 for 24 h. After this incubation period, the copper complexes were accurately weighed and immediately dissolved in 100% (v/v) dimethyl sulfoxide (DMSO). Subsequently, the complexes were diluted to the final concentration using a cell culture medium. The culture medium in each well was replaced with fresh medium containing varying concentrations of the complexes (ranging from 0.01 to 50 μM). Negative controls contained culture medium with 0.1% (v/v) DMSO, and positive controls contained 0.4 μM Dox.
(§3) After an additional 48 h of incubation under the same conditions, cellular viability was assessed using the CellTiter 96 Aqueous One Solution Cell Proliferation Assay kit (Promega, Madison, USA). Metabolically active cells contain mitochondrial dehydrogenases that can reduce 3-(4,5-dimethylthiazol-2-yl)-5-(3-carboxymethoxyphenyl)-2-(4-sulfophenyl)-2H-tetrazolium, the inner salt (MTS) to formazan. The absorbance of formazan, measured at 490 nm in a microplate reader (Tecan Infinite M200, Tecan, Männedorf, Switzerland), is directly proportional to the number of viable cells.[104]
(§4) The cell viability versus concentration graphics were analyzed using Prism 8 software (GraphPad) to determine the half-maximal inhibitory concentration (IC50) of each complex for the respective cell line. Additionally, the selective index (SI) for each complex was calculated by dividing the IC50 of human fibroblasts by the IC50 values of the tested cancer cell lines.

HCT116-DoxR cells = assay: Autophagy induction (CYTO-ID green, flow cytometry); conditions: 48 h; complexes at IC50, Dox 6 μM, Cis 5 μM, rapamycin 1500 nM
Excerpt: Furthermore, previous studies have shown that complexes containing terpyridine derivatives have the ability to trigger both apoptosis and autophagy cell death mechanisms in cancer cells simultaneously.[38] This convergence of death pathways may arise from an adaptive response of the heterogeneous tumor cell population.[38] In this context, understanding the mechanism by which cells lose viability in the presence of the two Cu(II) complexes with the simultaneous induction of apoptosis and autophagy becomes crucial. Autophagy is a highly conserved catabolic process crucial for maintaining cellular homeostasis but is also associated with type II programmed cell death.[75] It involves intracellular degradation through autophagolysosomes responsible for breaking down luminal content and enabling recycling of cellular components.[76],[77] The assessment of the complexes’ ability to induce autophagy was conducted using flow cytometry, employing the CYTO-ID green detection reagent. This probe emits green fluorescence, marking the autophagic vacuoles within the cell. Higher fluorescence indicates a greater proportion of autophagolysosomes.[78] Three positive controls were used: Dox, Cis, and rapamycin (1500 nM), whose concentration was previously optimized for the HCT116-DoxR cell line in the laboratory.[64] Rapamycin is known to induce autophagy through its mechanistic target, mTOR.
Cell death via autophagy was evaluated using the Autophagy Assay Kit (ab139484; Abcam, Cambridge, United Kingdom), according to the manufacturers’ instructions. HCT116-DoxR cells were seeded at a density of 1 × 10^5 cells/mL in 6-well plates for 24 h, under the same conditions described before. After this incubation period, the culture medium was replaced with a fresh medium containing the copper complexes under evaluation at their IC50 concentration. A 0.1% (v/v) DMSO solution was used as the negative (vehicle) control, and 6 μM Dox and 5 μM Cis were used as positive controls. The cells were incubated again for 48 h. Rapamycin (1500 nM) was also added as a positive control, and it was added 18 h before the end of the 48 h incubation. After this period, the supernatant was discarded, and each well was washed with PBS 1×. Subsequently, cells were detached using TrypLE Express and washed with phenol red-free DMEM medium containing 5% (v/v) FBS. Cells were incubated with Green Stain Solution in phenol red-free DMEM medium containing 5% (v/v) FBS for 30 min at RT. After this period, the samples were washed and then resuspended in Assay Buffer 1×. The samples were analyzed using an Attune Acoustic Focusing Flow Cytometer (Life Technologies, Carlsbad, USA), and the results were analyzed via the Attune Cytometric software.

[2] = tested on: primary dermal fibroblasts; assay: Cell migration (wound healing) assay; conditions: 24 h; complexes at IC50, Dox 6 μM; DMSO control 100%
Method: Cellular migration is the individual movement of cells from one location to another.[96] This migratory process is an integral part of both the metastatic process and wound healing.[54] […] The in vitro wound healing assay is highly used to understand how the complexes affect cellular migration by measuring the closure of a gap previously created in the cell culture plate. […] Additionally, cells were subjected to the vehicle control of 0.1% DMSO and the positive control of Dox (6 μM), and the percentage of remission/regeneration was calculated (Figure 18).
Fibroblasts were seeded in 24-well plates at a cell density of 4 × 10^5 cells/mL. The plates were incubated for 24 h under the same conditions described before until a confluent cell monolayer was obtained. […] The cells were incubated at 37 °C for 48 h. The plates were photographed under an inverted microscope (Nikon TMS, Nikon Instruments, Tokyo, Japan) at 4× magnification (immediately after exposure to the complexes (0 h), 24, and 48 h following exposure).

[3] = tested on: HCT116-DoxR cells (doxorubicin resistant colorectal carcinoma); assay: MTS cell viability assay, HCT116-DoxR 2D; conditions: for IC50: 48 h of exposure, MTS, relative IC50, mean + SEM, read-out: IC50 HCT116-DoxR (2D); for SI HCT116-DoxR: ratio IC50 fibroblasts / IC50 HCT116-DoxR
Method: as §1, §2, §3, §4

For N.N.[Cl][Pt][Cl] [Cisplatin], the IC50 [1] was 15600 ± 5300 nM and the “increase in autophagic vesicles compared to 0.1% DMSO control” value (shortened to “increase … to 0.1% DMSO control”) (HCT116-DoxR cells) was “increase in green fluorescence intensity”.
With [Cl][Cu-3]12([Cl])[n+]3ccccc3-c3cc(-c4cccc5ccccc45)cc([n+]31)-c1cccc[n+]12 [Cu1a] the IC50 [1] was 280 ± 30 nM, the “SI HCT116” value [1] was 33.1 and the “percentage of remission/regeneration of the wound” value [2] was “approximately 66%”. For the same compound, the IC50 [3] was 240 ± 20 nM, the “SI HCT116-DoxR” value [3] was 38.6 and the “increase … to 0.1% DMSO control” value (HCT116-DoxR cells) was “approximately 2 fold”.
[Cl][Cu-3]12([Cl])[n+]3ccccc3-c3cc(-c4ccc5ccccc5c4)cc([n+]31)-c1cccc[n+]12 [Cu1b] was tested, and the IC50 [1] was 210 ± 50 nM, the “SI HCT116” value [1] was 63.3 and the “percentage of remission/regeneration of the wound” value [2] was 69%. For the same compound, the IC50 [3] was 290 ± 20 nM, the “SI HCT116-DoxR” value [3] was 45.9 and the “increase … to 0.1% DMSO control” value (HCT116-DoxR cells) was “approximately 2 fold”.
With COc1cccc2c1C(=O)c1c(O)c3c(c(O)c1C2=O)C[C@@](O)(C(=O)CO)C[C@@H]3O[C@H]1C[C@H](N)[C@H](O)[C@H](C)O1 [Doxorubicin] the IC50 ([1]; Homo sapiens, HCT-116) was 500 ± 100 nM, the “percentage of remission/regeneration of the wound” value [2] was 68% and the IC50 ([3]; Homo sapiens) was over 6000 nM. The “increase … to 0.1% DMSO control” value (HCT116-DoxR cells) was 2.2 fold.
